How the values were obtained:
[1] = system: human aortic valve interstitial cells (AVICs); test: Osteogenic assay: calcification of human AVICs in osteogenic media (Alizarin Red); format: cell-based; settings: for calcification of AVICs: STAT5 inhibitor 10 μM added every two days during osteogenic (OST) treatment, after 21 days of treatment (FIG. 6D)
Method: Human cell isolation. Patient-specific lines were established by using the same valves for histopathology, RNA, and cell isolation. Primary aortic valve interstitial cells (AVICs) were obtained from the patient aortic valve. Briefly, leaflets were washed with PBS containing 10 mg/ml gentamicin (GIBCO) and 250 μg/ml fungizone (GIBCO) and dissociated with 0.1% collagenase II at 37 C and 5% of CO2 for 18 hours. Then, the tissue was further dissociated by gently mixing it by pipetting with a serological pipette to ensure the release of A VICs and then passed through a […] filter to remove debris. Cells were pelleted and then resuspended in Dulbecco's Modified Eagle's Medium (DMEM) supplemented with 10% fetal bovine serum (FBS) and 1×penicillin-streptomycin (P/S). Human coronary artery smooth muscle cells (CASMC) were obtained from patient coronary. Briefly, vessels were washed with PBS containing 10 mg/ml gentamicin (GIBCO) and 250 μg/ml fungizone (GIBCO). Vessels were cut open to expose the lumen and intima and adventitia were gently scrapped. Vessels were then sectioned and dissociated with 0.1% collagenase II for 3 hrs. Cells were pelleted and then seed and expanded.
(§1) Cell Culture. AVICs lines were expanded in Dulbecco's Modified Eagle's Medium supplemented with 10% fetal bovine serum and 1×penicillin-streptomycin. Cells were used between passages 4 and 15. Growth media was changed every three days, and cells were split 1:2 when confluent. CASMC lines were expanded in smooth muscle media SMGM (CC-3181) supplemented with BULLETKIT (CC-4149). Human MSCs (PT-2501, Lonza) were expanded on Minimum Essential Medium alpha without nucleosides and supplemented with 10% fetal bovine serum and 1×penicillin-streptomycin and used between passages 4 and 10. Cells are routinely tested for mycoplasma contamination.
(§2) Osteogenic Assay. […]
(§3) Alizarin Red Staining and Quantification. […] Absorbance was at 405 nm using a 96-well plate spectrophotometer.

hCASMC = test: Osteogenic assay: calcification of human coronary artery smooth muscle cells; format: cell-based; settings: inhibitor 10 μM, osteogenic media, 21 days (FIG. 16D, FIG. 6E)
Method: Scalebar 100 μm (middle panel). Quantification of PLA signal is shown on the right graphs. n=4. […] Diagram depicting STAT5 and TERT binding RUNX2 promoter and the positions of the predicted STAT5 binding sites (bottom panel). […] Scalebar 400 μm n=8; means±SD. Quantification of calcification is shown on the right graph. Data is represented as means±SD. P were calculated by Kruskal-Wallis H test with Dunn pairwise comparison post hoc test. Scalebar 400 um. […] When the cells reached confluence, media was replaced with osteogenic media (Minimum Essential Medium alpha with nucleosides, 10% FBS, 1×P/S, 10 mM glycerol phosphate, 50 μM ascorbic acid 2-phosphate, and 100 nM dexamethasone) for 21 days. No treatment media consisted of Minimum Essential Medium alpha with nucleosides, 10% FBS, 1×P/S. Media was replaced every four days.
Quantification of protein levels. n=4 control, n=4 CAVD; means±SD; two-way ANOVA. […] Scalebar 100 um. Quantification of PLA is shown on the right graph. n=4. […] P were calculated by Kruskal-Wallis H test with Dunn pairwise comparison post hoc test. Scalebar 400 um. […] Scalebar 50 um.
Human cell isolation. Patient-specific lines were established by using the same valves for histopathology, RNA, and cell isolation. Primary aortic valve interstitial cells (AVICs) were obtained from the patient aortic valve. […]
Alizarin Red Staining and Quantification. […]

hMSCs = test: Osteogenic assay: calcification of human mesenchymal stem cells; format: cell-based; settings: inhibitor 10 μM, osteogenic media, 21 days (FIG. 17)
Method: When cells reached confluence, media was replaced with osteogenic media (Minimum Essential Medium alpha with nucleosides, 10% FBS 1×P/S, 10 mM glycerol phosphate, 50 uM ascorbic acid 2-phosphate, and 100 nM dexamethasone) for 21 days. No treatment media consisted of Minimum Essential Medium alpha with nucleosides, 10% FBS, 1×P/S. Media was replaced every four days. […] P were calculated by Kruskal-Wallis H test with Dunn pairwise comparison post hoc test. Scalebar 400 μm.
as §1, §2, §3

STAT5A = molecular target: T1, STAT5A (Homo sapiens, UniProt P42229); settings: as reported; cited from earlier work
T1 sequence (P42229 1-794): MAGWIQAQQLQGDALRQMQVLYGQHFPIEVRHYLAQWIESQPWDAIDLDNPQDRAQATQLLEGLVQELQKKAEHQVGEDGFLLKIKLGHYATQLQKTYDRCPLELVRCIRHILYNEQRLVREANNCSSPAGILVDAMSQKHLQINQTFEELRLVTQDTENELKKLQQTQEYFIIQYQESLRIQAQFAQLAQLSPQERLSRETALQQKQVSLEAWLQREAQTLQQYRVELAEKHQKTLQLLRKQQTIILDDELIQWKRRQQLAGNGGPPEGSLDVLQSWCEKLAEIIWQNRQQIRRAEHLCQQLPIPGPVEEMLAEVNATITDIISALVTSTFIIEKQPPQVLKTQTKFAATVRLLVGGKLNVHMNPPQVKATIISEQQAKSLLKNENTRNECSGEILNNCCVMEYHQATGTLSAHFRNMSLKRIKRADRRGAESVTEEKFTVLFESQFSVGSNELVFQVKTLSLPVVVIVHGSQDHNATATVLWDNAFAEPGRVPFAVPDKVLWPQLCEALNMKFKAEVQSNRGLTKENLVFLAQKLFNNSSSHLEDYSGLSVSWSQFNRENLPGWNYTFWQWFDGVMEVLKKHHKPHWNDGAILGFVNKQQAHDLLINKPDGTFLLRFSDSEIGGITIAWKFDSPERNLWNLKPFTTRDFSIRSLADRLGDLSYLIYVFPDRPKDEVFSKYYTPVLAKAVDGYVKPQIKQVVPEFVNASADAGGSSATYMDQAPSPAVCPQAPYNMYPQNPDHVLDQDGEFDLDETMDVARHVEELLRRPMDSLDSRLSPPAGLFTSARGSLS

Row | Structure (SMILES) | calcification of AVICs [1] | calcification in hCASMC (hCASMC) | ability of AVICs to calcify ([1]; BIBR1532 at 1, 10, or 100 nM added every two days during OST treatment, 28 days (FIG. 13C)) | calcification in hMSCs (hMSCs) | specific inhibition of STAT5A isoform (STAT5A)
1 | O=C(COc1ccc2cc(C(=O)Nc3ccccc3)ccc2c1)NCc1ccc(OP(=O)(O)O)c(OP(=O)(O)O)c1 [StafiB-1] | this inhibition was of a greater extent than the inhibition observed when AVICs were treated with StafiB-1 | did not |  |  | 
2 | C/C(=C\C(=O)Nc1ccccc1C(=O)O)c1ccc2ccccc2c1 [BIBR1532] |  |  | did not alter the ability of AVICs to calcify |  | 
3 | COc1cc(-c2cc(OP(=O)(O)O)cc(-c3cc(OC)c(OC)c(OC)c3)c2)cc(OC)c1OC [StafiA-1] | significantly inhibited calcification | significantly reduced the calcification |  | significantly reduced the calcification | specifically inhibit
